Laboratory results from ChEMBL document CHEMBL2034824, “Pyridyl-2,5-diketopiperazines as potent, selective, and orally bioavailable oxytocin antagonists: synthesis, pharmacokinetics, and in vivo potency” (J Med Chem, 2012).
≈ marks a conversion by molar mass, not a printed value.

How the values were obtained:
[1] = Clearance in dog at 0.6 mg/kg; type: ADME, organism-based, Canis lupus familiaris; parameters: dose 0.6 mg/kg; conditions: in vivo
Oxytocin receptor = molecular target: T1, Oxytocin receptor (Homo sapiens, UniProt P30559); assay: Displacement of [3H]oxytocin from human oxytocin receptor
T1 sequence (P30559 whole entry): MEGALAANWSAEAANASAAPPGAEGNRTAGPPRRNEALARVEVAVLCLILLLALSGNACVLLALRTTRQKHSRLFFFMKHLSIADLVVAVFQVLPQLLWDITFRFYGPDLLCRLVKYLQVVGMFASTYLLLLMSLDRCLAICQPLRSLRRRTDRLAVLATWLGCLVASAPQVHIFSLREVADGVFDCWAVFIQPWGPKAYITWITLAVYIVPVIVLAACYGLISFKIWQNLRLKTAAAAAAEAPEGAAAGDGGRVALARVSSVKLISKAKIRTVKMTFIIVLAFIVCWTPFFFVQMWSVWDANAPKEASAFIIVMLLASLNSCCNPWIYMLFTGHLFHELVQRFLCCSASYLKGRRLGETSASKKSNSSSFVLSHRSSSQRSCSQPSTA

Cytochrome P450 2D6 = Cytochrome P450 2D6 (Homo sapiens, UniProt P10635); assay: Inhibition of human CYP2D6; type: ADME
Chain of Cytochrome P450 2D6 (P10635 whole entry): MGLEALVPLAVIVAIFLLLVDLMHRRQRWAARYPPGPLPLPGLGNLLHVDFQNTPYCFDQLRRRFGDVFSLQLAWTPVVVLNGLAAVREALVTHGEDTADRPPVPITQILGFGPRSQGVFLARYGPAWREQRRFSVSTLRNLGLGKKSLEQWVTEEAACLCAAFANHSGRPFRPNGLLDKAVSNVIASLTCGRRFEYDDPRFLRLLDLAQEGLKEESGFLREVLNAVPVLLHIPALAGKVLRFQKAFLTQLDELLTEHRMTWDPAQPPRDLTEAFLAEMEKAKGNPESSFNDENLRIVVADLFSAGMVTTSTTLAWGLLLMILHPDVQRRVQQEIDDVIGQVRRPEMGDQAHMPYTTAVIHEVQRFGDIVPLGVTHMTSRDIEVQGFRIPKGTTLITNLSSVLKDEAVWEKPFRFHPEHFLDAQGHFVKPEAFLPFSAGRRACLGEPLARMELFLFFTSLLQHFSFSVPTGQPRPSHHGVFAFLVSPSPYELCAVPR

Cytochrome P450 1A2 = molecular target: T2, Cytochrome P450 1A2 (Homo sapiens, UniProt P05177); assay: Inhibition of human CYP1A2; type: ADME
T2 sequence (P05177 whole entry): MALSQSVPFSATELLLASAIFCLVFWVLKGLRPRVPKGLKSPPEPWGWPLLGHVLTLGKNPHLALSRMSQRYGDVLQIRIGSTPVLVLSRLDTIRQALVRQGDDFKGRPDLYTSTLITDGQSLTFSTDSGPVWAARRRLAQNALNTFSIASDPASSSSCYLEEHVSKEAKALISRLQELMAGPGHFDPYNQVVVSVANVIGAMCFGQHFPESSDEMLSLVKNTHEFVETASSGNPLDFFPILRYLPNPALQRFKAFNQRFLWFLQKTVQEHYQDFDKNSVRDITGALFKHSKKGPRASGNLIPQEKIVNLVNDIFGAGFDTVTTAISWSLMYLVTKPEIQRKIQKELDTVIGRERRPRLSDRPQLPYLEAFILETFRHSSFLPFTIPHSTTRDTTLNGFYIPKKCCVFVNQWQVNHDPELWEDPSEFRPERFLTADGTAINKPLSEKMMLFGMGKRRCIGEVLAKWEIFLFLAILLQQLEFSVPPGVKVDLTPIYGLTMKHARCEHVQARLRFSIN

Vasopressin V2 receptor = Vasopressin V2 receptor (Homo sapiens, UniProt P30518); assay: Displacement of [3H]vasopressin from human vasopressin V2 receptor
Chain of Vasopressin V2 receptor (P30518 whole entry): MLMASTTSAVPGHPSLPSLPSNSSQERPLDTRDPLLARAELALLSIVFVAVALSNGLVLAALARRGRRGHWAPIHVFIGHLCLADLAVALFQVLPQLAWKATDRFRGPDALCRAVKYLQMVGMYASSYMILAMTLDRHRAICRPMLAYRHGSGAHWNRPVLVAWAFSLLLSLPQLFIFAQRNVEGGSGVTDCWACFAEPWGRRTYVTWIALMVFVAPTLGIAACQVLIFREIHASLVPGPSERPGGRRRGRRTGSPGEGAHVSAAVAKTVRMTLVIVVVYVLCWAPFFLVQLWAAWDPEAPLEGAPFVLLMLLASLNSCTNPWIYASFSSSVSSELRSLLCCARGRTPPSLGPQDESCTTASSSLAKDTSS

Liver microsomes [2] = assay: Intrinsic clearance in human liver microsomes; type: ADME, Microsome
[3] = AUC in cynomolgus monkey at 2 mg/kg, po; type: ADME, organism-based, Macaca fascicularis; parameters: dose 2 mg/kg, route oral; conditions: plasma
Cytochrome P450 2C9 = Cytochrome P450 2C9 (Homo sapiens, UniProt P11712); assay: Inhibition of human CYP2C9; type: ADME
Chain of Cytochrome P450 2C9 (P11712 whole entry): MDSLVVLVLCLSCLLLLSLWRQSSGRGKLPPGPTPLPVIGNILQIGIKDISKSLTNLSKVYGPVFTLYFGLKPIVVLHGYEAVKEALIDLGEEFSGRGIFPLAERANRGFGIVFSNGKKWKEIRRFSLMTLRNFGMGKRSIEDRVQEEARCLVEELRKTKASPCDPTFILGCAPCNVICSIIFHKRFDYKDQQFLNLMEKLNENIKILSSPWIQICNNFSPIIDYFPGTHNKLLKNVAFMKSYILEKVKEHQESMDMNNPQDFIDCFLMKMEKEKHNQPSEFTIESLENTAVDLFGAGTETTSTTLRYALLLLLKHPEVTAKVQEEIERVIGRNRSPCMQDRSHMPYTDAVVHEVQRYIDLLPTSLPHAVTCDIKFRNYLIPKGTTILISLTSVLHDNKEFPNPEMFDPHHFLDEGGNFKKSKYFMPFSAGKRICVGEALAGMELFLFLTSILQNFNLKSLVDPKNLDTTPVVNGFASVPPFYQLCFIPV

serum albumin [4] = molecular target: serum albumin (Homo sapiens, UniProt P02768); assay: Binding affinity to human serum albumin; type: ADME; conditions: read-out: PB (converted)
Chain of serum albumin (Homo sapiens, UniProt P02768) (P02768 whole entry): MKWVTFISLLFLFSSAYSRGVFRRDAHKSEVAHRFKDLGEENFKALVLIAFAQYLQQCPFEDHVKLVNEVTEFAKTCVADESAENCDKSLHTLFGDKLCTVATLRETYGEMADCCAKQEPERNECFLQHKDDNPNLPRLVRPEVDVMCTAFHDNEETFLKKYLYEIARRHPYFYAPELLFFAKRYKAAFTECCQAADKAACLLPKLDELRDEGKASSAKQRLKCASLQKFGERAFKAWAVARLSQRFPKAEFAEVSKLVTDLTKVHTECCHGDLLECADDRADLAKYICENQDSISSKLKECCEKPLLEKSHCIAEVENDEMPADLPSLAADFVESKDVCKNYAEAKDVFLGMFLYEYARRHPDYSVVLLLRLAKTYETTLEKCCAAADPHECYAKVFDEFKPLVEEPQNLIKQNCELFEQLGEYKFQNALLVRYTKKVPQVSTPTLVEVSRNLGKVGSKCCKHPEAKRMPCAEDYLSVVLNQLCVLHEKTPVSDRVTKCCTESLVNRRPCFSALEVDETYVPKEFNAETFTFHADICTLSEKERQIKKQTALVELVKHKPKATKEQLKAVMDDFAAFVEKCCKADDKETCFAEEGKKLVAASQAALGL

[5] = Oral bioavailability in cynomolgus monkey at 2 mg/kg; type: ADME, organism-based, Macaca fascicularis; conditions: in vivo
Cytochrome P450 2C19 = Cytochrome P450 2C19 (Homo sapiens, UniProt P33261); assay: Inhibition of human CYP2C19; type: ADME
Chain of Cytochrome P450 2C19 (P33261 whole entry): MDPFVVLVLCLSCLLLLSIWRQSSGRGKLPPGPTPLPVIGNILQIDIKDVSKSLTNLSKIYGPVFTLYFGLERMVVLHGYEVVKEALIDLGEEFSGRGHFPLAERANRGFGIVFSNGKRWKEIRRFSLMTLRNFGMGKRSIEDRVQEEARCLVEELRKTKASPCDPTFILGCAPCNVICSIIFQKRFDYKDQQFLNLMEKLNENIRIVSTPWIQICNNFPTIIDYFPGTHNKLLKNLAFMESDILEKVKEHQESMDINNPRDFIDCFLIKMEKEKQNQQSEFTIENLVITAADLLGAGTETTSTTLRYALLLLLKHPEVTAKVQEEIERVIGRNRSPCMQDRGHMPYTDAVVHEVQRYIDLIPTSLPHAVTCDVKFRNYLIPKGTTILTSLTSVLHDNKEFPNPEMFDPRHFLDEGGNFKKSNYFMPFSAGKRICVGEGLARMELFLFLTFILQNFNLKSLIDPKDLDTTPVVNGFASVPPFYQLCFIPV

[6] = Clearance in cynomolgus monkey at 2 mg/kg; type: ADME, organism-based, Macaca fascicularis; parameters: dose 2 mg/kg; conditions: in vivo
[7] = AUC in dog at 0.6 mg/kg, po; type: ADME, organism-based, Canis lupus familiaris; parameters: dose 0.6 mg/kg, route oral; conditions: plasma
Vasopressin V1a receptor = Vasopressin V1a receptor (Homo sapiens, UniProt P37288); assay: Displacement of [3H]vasopressin from human vasopressin V1a receptor
Chain of Vasopressin V1a receptor (P37288 whole entry): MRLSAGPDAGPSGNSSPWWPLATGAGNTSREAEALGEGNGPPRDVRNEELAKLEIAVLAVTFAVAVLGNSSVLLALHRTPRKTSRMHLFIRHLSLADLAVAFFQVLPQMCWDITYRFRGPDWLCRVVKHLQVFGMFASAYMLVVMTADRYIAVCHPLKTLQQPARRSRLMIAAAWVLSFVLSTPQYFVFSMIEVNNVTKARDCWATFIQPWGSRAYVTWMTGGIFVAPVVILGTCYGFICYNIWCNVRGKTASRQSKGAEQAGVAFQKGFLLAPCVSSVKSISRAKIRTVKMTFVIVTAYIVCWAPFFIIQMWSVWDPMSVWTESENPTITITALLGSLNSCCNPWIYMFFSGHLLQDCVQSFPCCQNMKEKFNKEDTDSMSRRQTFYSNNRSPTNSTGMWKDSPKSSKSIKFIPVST

Liver microsomes [8] = assay: Intrinsic clearance in rat liver microsomes; type: ADME, Microsome
[9] = Lipophilicity, log D of the compound by HPLC analysis; type: physicochemical
Liver = assay: Intrinsic clearance in dog liver microsomes; type: ADME, Canis lupus familiaris, Microsome
[10] = Intrinsic clearance in cynomolgus monkey liver microsomes; type: ADME, Macaca fascicularis, Microsome
Cytochrome P450 3A4 [11] = molecular target: T3, Cytochrome P450 3A4 (Homo sapiens, UniProt P08684); assay: Inhibition of human CYP3A4 using diethoxyfluorescein as substrate; type: ADME
T3 sequence (P08684 whole entry): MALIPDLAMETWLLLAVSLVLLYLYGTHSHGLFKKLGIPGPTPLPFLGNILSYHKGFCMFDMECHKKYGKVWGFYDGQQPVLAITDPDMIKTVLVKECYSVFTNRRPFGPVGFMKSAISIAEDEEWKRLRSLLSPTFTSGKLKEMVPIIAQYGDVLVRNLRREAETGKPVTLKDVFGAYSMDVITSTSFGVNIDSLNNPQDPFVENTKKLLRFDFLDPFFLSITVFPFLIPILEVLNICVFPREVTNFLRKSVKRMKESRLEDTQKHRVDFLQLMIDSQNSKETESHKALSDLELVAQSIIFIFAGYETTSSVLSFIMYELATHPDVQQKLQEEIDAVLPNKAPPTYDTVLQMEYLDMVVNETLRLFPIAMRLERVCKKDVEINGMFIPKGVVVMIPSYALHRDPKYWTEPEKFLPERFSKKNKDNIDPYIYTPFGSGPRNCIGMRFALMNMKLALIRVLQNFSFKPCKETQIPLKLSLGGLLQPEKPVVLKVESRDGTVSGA

Cytochrome P450 3A4 [12] = molecular target: T3, Cytochrome P450 3A4; assay: Inhibition of human CYP3A4 using 7-benzyloxyquinoline as substrate; type: ADME
[13] = Clearance in rat at 5 mg/kg; type: ADME, organism-based; parameters: dose 5 mg/kg; conditions: in vivo
[14] = AUC in rat at 5 mg/kg, po; type: ADME, organism-based; parameters: dose 5 mg/kg, route oral; conditions: plasma
serum albumin [15] = molecular target: serum albumin (Rattus norvegicus, UniProt P02770); assay: Binding affinity to rat serum albumin; type: ADME; conditions: read-out: PB (converted)
Chain of serum albumin (Rattus norvegicus, UniProt P02770) (P02770 whole entry): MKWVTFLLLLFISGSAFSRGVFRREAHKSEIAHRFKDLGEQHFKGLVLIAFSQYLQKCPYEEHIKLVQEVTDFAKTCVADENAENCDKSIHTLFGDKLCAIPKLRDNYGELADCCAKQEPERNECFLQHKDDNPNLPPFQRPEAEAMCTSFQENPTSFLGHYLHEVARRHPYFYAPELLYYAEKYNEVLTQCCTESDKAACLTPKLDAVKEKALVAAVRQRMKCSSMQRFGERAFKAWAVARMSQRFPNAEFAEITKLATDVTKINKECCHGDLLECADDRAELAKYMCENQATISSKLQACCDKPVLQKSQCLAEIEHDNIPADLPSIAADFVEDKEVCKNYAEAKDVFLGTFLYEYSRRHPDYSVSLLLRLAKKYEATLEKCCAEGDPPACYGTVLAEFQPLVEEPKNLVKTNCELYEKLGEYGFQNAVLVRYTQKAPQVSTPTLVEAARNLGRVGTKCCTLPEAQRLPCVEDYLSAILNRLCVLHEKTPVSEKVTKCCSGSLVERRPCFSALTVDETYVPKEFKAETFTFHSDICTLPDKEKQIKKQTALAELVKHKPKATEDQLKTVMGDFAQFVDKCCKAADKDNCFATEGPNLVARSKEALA

Vasopressin V1b receptor = molecular target: T4, Vasopressin V1b receptor (Homo sapiens, UniProt P47901); assay: Displacement of [3H]vasopressin from human vasopressin V1b receptor
T4 sequence (P47901 whole entry): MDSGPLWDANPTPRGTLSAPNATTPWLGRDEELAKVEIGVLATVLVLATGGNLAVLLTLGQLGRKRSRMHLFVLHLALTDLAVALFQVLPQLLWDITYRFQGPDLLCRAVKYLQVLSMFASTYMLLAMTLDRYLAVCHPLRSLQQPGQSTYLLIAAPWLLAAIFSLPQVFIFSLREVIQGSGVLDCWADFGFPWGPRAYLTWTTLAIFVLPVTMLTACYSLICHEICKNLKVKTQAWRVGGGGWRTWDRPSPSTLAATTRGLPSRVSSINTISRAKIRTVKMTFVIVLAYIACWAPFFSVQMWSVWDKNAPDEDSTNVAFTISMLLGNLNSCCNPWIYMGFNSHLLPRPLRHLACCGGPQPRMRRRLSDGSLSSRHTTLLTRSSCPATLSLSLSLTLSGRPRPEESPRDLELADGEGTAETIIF

[16] = Oral bioavailability in rat at 5 mg/kg; type: ADME, organism-based; conditions: in vivo
[17] = Aqueous solubility of the compound by HPLC analysis; type: physicochemical
Salmonella typhimurium = assay: Genotoxicity in Salmonella typhimurium by high-throughput fluctuation test/mini-Ames assay; type: toxicity, organism-based; conditions: salmonella enterica subsp. enterica serovar typhimurium
Rattus norvegicus [18] = assay: Toxicity in Sprague-Dawley rat assessed as adverse clinical signs at 100 mg/kg/day, po for 7 days; type: organism-based; parameters: route oral; conditions: in vivo, 168 h
[19] = Dissociation constant, pKa of the compound in aqueous solution; type: physicochemical
Rattus norvegicus [20] = assay: Reduction of oxytocin-induced uterine contraction in iv dosed rat uterine contractility model; type: functional, organism-based
Rattus norvegicus [21] = assay: Toxicity in Sprague-Dawley rat assessed as reduction in food intake at 100 mg/kg/day, po for 7 days; type: organism-based; parameters: route oral; conditions: in vivo, 168 h
[22] = Chemical stability of the compound in aqueous solution at pH 2 to 6 up to 7 days in presence of light; type: physicochemical; conditions: buffer, pH 2, 168 h
Rattus norvegicus [23] = assay: Toxicity in Sprague-Dawley rat assessed as adverse histological findings at 100 mg/kg/day, po for 7 days; type: organism-based; parameters: route oral; conditions: in vivo, 168 h
[24] = Chemical stability of the compound up to 3 months at 50 degC; type: physicochemical
[25] = Oral bioavailability in dog at 0.6 mg/kg; type: ADME, organism-based, Canis lupus familiaris; conditions: in vivo
[26] = Lipophilicity, log D of the compound at pH 7.4; type: physicochemical; conditions: buffer
Rattus norvegicus [27] = assay: Toxicity in Sprague-Dawley rat assessed as reduction in body weight at 100 mg/kg/day, po for 7 days; type: organism-based; parameters: route oral; conditions: in vivo, 168 h
[28] = Half life in rat; type: ADME, organism-based; conditions: in vivo
[29] = Solubility of the compound in water; type: physicochemical

clearance [1]	Ki (Oxytocin receptor)	IC50 (Cytochrome P450 2D6)	IC50 (Cytochrome P450 1A2)	Ki (Vasopressin V2 receptor)	CLH (Liver microsomes [2])	AUC [3]	IC50 (Cytochrome P450 2C9)	fraction unbound (serum albumin [4])	bioavailability [5]	IC50 (Cytochrome P450 2C19)	clearance [6]	AUC [7]	Ki (Vasopressin V1a receptor)	CLH (Liver microsomes [8])	logD [9]	CLH (Liver)	CLH [10]	IC50 (Cytochrome P450 3A4 [11])	IC50 (Cytochrome P450 3A4 [12])	Structure (SMILES)	other results
7 mL/min/kg	0.0794 nM	66 µM	> 100 µM	0.0398 µM	14 mL/min/g	16 ng·h/mL	12 µM	0.06	1.5%	38 µM	24 mL/min/kg	770 ng·h/mL	0.631 µM	2 mL/min/g	3.4	7 mL/min/g	22 mL/min/g	5 µM	31 µM	CC(C)C[C@@H]1C(=O)N[C@H](C2Cc3ccccc3C2)C(=O)N1[C@@H](C(=O)N(C)C)c1ccc(F)cc1F	clearance [13]: 15 mL/min/kg; AUC [14]: 2970 ng·h/mL; fraction unbound (serum albumin [15]): 0.01; Ki (Vasopressin V1b receptor): > 12.6 µM
19 mL/min/kg	0.126 nM	> 100 µM	> 100 µM	3.98 µM	5 mL/min/g	116 ng·h/mL	> 100 µM	0.3	7%	> 100 µM	26 mL/min/kg	69 ng·h/mL	> 6.31 µM	< 1 mL/min/g	2.2	< 1 mL/min/g	4 mL/min/g	> 100 µM	> 100 µM	CC[C@H](C)[C@@H]1C(=O)N[C@H](C2Cc3ccccc3C2)C(=O)N1[C@@H](C(=O)N1CCOCC1)c1ccc(C)nc1C [EPELSIBAN]	bioavailability [16]: 55%; solubility [17]: 0.232 mg/mL (≈ 0.447 mM); Activity (Salmonella typhimurium): Non-toxic; Activity (Rattus norvegicus [18]): Non-toxic; pKa [19]: 5.78; IC50 (Rattus norvegicus [20]): 0.192 µM; Activity (Rattus norvegicus [21]): Non-toxic; Stability [22]: Stable; Activity (Rattus norvegicus [23]): Non-toxic; Stability [24]: Stable; bioavailability [25]: 13%; logD [26]: 2.55; Activity (Rattus norvegicus [27]): Non-toxic; half-life [28]: 1.2 h; clearance [13]: 13 mL/min/kg; solubility [29]: 33 mg/mL (≈ 63.6 mM); AUC [14]: 3450 ng·h/mL; Ki (Vasopressin V1b receptor): > 7.94 µM
